Experimental data reported in US8263060B2, “Fast degrading polymers” (Rutgers, The State University of New Jersey, priority 2005, dated 2012).
Converted amounts (≈) assume the structure as drawn.

Test: Solubility in PBS degradation media
Format: physicochemical
Details: aqueous buffer

COc1cc(C(=O)O)cc(OC)c1O [syringic acid]
solubility: 56 mg/mL (≈ 283 mM)
